Where a name gives a salt, the structure may show the parent alone. Read-outs that look alike come from different tables or passages of the source.
Experiments:
mice [1] = assay: Radioprotective activity: survival at the 30th day after irradiation; assay type: in vivo; details: for responders at 400 mg/kg: 400 mg/kg i.p.; for responders at 1000 mg/kg: 1,000 mg/kg i.p.; for responders at 625 mg/kg: 625 mg/kg i.p.; for radioprotective activity (in words): mouse, in vivo; for responders at 500 mg/kg: 500 mg/kg i.p.
Protocol: This study of radioprotective activity was carried out according to a technique described by M. Fatome at al., Eur. J. Med. Chem. 1977, 12, (1), 93. […] This dose is equal to 950 Rad.
More complete studies are recorded in Table II.

mice [2] = assay: Acute toxicity (LD50), i.p.; assay type: in vivo; details: for LD50: Table I
[3] = Acute toxicity (LD50), i.p.; assay type: in vivo, mice; details: mouse, in vivo, ip
[4] = Mus musculus, light or radiation study, ip, 720 h, Table I, 750 mg/kg i.p., 15' before irradiation at 900 or 950 Rad, read-out: % survival at the 30th day
[5] = Mus musculus, light or radiation study, ip, 720 h, Table I, 15' before irradiation at 900 or 950 Rad, read-out: % survival at the 30th day
[6] = Mus musculus, light or radiation study, ip, 720 h, read-out: % survival at the 30th day, Table I, 750 mg/kg i.p., 15' before irradiation at 900 or 950 Rad
[7] = Mus musculus, light or radiation study, ip, 720 h, read-out: % survival at 30 days, Table II, 750 mg/kg i.p., 15' before irradiation, 900 Rad
[8] = Mus musculus, light or radiation study, ip, 720 h, read-out: % survival at 30 days, Table II, 750 mg/kg i.p., 2 hours before irradiation, 900 Rad
[9] = Mus musculus, light or radiation study, ip, 720 h, Table II, 15' before irradiation, 900 Rad, read-out: % survival at 30 days
[10] = Mus musculus, light or radiation study, ip, 720 h, Table II, 15' before irradiation, 1,100 Rad, read-out: % survival at 30 days
[11] = Mus musculus, light or radiation study, ip, 720 h, Table II, 15' before irradiation, 950 Rad, read-out: % survival at 30 days

For `Br.CC(=O)SCCNC(=O)CN` [Example 2, HYDROBROMIDE], the responders at 187 mg/kg (mice [1]; Mus musculus, light or radiation study, ip, 720 h, Table I, 187 mg/kg i.p., 15' before irradiation at 900 or 950 Rad, read-out: % survival at the 30th day) was 67% and the responders at 750 mg/kg (mice [1]; [4]) was 100%.
For `Br.CC(=O)SCCNC(=O)CN` [Example 2], the LD50 (mice [2]) was 1,500 mg/kg.
`Br.CC(=O)SCCNC(=O)[C@H](C)N` [Example 4, HYDROBROMIDE] gave a responders at 188 mg/kg (mice [1]; Mus musculus, light or radiation study, ip, 720 h, Table I, 188 mg/kg i.p., 15' before irradiation at 900 or 950 Rad) of 40% and a responders at 750 mg/kg (mice [1]; [4]) of 80%.
For `Br.CC(=O)SCCNC(=O)[C@H](C)N` [Example 4], the LD50 (mice [2]) was 1,500 mg/kg.
For `Br.CC(=O)SCCNC(=O)CCCN` [Example 6, HYDROBROMIDE], the responders at 400 mg/kg (mice [1]; [5]) was 60%.
`Br.CC(=O)SCCNC(=O)CCCN` [Example 6] gave an LD50 (mice [2]) of 800 mg/kg.
With `CC(=O)SCCNC(=O)CN` [Example 8] the LD50 ([3]; Table I) was 1200 mg/kg, the LD50 ([3]; Table II) was 1200 mg/kg and the “% survival at the 30th day” value (mice [1]; Table I, 750 mg/kg i.p., 15' before irradiation at 900 or 950 Rad) was 93%. The “% survival at 30 days” value (mice [1]; Table II, 187 mg/kg i.p., 15' before irradiation, 900 Rad) was 0%, the “% survival at 30 days” value (mice [1]; Table II, 750 mg/kg i.p., 15' before irradiation, 900 Rad) was 93% and the “% survival at 30 days” value (mice [1]; Table II, 750 mg/kg i.p., 15' before irradiation, 1,100 Rad) was 50%.
In the case of `NCC(=O)NCCSC(=O)C(Cl)Cl.O=C(O)C(F)(F)F` [Example 10, N-GLYCYL-S-(DICHLOROACETYL)CYSTEAMINE TRIFLUOROACETATE], the LD50 (mice [2]) is reported as 800 mg/kg and the responders at 800 mg/kg (mice [1]; Mus musculus, light or radiation study, ip, 720 h, Table I, 800 mg/kg i.p., 15' before irradiation at 900 or 950 Rad) is reported as 40%.
For `Br.Br.NCC(=O)NCCSSCCNC(=O)CN` [Example 16, N,N'-[…] DIHYDROBROMIDE], the LD50 (mice [2]) was 1,500 mg/kg and the responders at 750 mg/kg (mice [1]; [6]) was 100%.
Compound `NCC(=O)NCCSSCCNC(=O)CN.O=C(O)C(F)(F)F.O=C(O)C(F)(F)F` [Example 18, N,N'-[…] DI(TRIFLUOROACETATE)] has an LD50 ([3]; Table I) of 1200 mg/kg, an LD50 ([3]; Table II) of 1250 mg/kg and a responders at 47 mg/kg (mice [1]; Mus musculus, light or radiation study, ip, 720 h, read-out: % survival at 30 days, Table II, 47 mg/kg i.p., 15' before irradiation, 900 Rad) of 0%. For the same compound, the responders at 94 mg/kg (mice [1]; Mus musculus, light or radiation study, ip, 720 h, read-out: % survival at 30 days, Table II, 94 mg/kg i.p., 15' before irradiation, 900 Rad) was 30%, the responders at 187 mg/kg (mice [1]; Mus musculus, light or radiation study, ip, 720 h, read-out: % survival at 30 days, Table II, 187 mg/kg i.p., 15' before irradiation, 900 Rad) was 90% and the responders at 187 mg/kg (mice [1]; Mus musculus, light or radiation study, ip, 720 h, read-out: % survival at 30 days, Table II, 187 mg/kg i.p., 15' before irradiation, 1,100 Rad) was 0%. The responders at 750 mg/kg (mice [1]; [7]) was 100%, the responders at 750 mg/kg (mice [1]; Mus musculus, light or radiation study, ip, 720 h, read-out: % survival at 30 days, Table II, 750 mg/kg i.p., 15' before irradiation, 1,300 Rad) was 10% and the responders at 750 mg/kg (mice [1]; [8]) was 60%. The responders at 1000 mg/kg (mice [1]; Mus musculus, light or radiation study, ip, 720 h, read-out: % survival at 30 days, Table II, 15' before irradiation, 1,300 Rad) was 0% and the “% survival at the 30th day” value (mice [1]; ip, 750 mg/kg, 720 h) was 100%.
Work on `Br.Br.C[C@H](N)C(=O)NCCSSCCNC(=O)[C@H](C)N` [Example 19, N,N'-[…] DIHYDROBROMIDE] yielded an LD50 ([3]; Table I) of 800 mg/kg and a responders at 400 mg/kg (mice [1]; Mus musculus, light or radiation study, ip, 720 h, read-out: % survival at the 30th day, Table I, 15' before irradiation at 900 or 950 Rad) of 100%.
Work on `CC(=O)SCCNC(=O)[C@H](C)N.O=C(O)C(F)(F)F` [Example 22, TRIFLUOROACETATE] yielded a responders at 156 mg/kg (mice [1]; Mus musculus, ip, 720 h, Table II, 156 mg/kg i.p., time and Rad not given, read-out: % survival at 30 days) of 0%, a responders at 625 mg/kg (mice [1]; [5]) of 100% and a responders at 625 mg/kg (mice [1]; Mus musculus, light or radiation study, ip, 720 h, Table II, 2 (hours, cut off) before irradiation, 900 Rad, read-out: % survival at 30 days) of 10%. For the same compound, the responders at 625 mg/kg (mice [1]; [9]) was 100% and the responders at 625 mg/kg (mice [1]; [10]) was 50%.
For `CC(=O)SCCNC(=O)[C@H](C)N.O=C(O)C(F)(F)F` [Example 22], the LD50 ([3]; Table II) was 1250 mg/kg, the LD50 (mice [2]) was 1,250 mg/kg and the “toxicity (in words)” value (mice [2]; mouse, in vivo) was “low toxicity”. For the same compound, the “radioprotective activity (in words)” value (mice [1]) was “good radioprotection”.
For `CC(=O)NC(C)(C)CSC(=O)CN.O=C(O)C(F)(F)F` [Example 24, TRIFLUOROACETATE], the responders at 750 mg/kg (mice [1]; [7]) was 70%, the responders at 750 mg/kg (mice [1]; Mus musculus, light or radiation study, ip, 720 h, read-out: % survival at 30 days, Table II, 750 mg/kg i.p., 15' before irradiation, 1,100 Rad) was 13% and the responders at 750 mg/kg (mice [1]; [8]) was 50%. The responders at 750 mg/kg (mice [1]; [6]) was 70%.
For `CC(=O)NC(C)(C)CSC(=O)CN.O=C(O)C(F)(F)F` [Example 24], the LD50 ([3]; Table I) was 1500 mg/kg, the LD50 ([3]; Table II) was 1500 mg/kg and the “radioprotective activity (in words)” value (mice [1]) was “show radioprotective activity”.
For `CC(=O)SCC(C)(C)NC(=O)CN` [Example 26, TRIFLUOROACETATE], the LD50 ([3]; Table I) was 1200 mg/kg, the LD50 ([3]; Table II) was 1200 mg/kg and the responders at 750 mg/kg (mice [1]; Mus musculus, ip, 720 h, Table II, 750 mg/kg i.p., 4th entry, time and Rad not given, read-out: % survival at 30 days) was 0%. For the same compound, the responders at 750 mg/kg (mice [1]; [4]) was 60%, the responders at 187 mg/kg (mice [1]; Mus musculus, light or radiation study, ip, 720 h, Table II, 187 mg/kg i.p., 15' before irradiation, 900 Rad, read-out: % survival at 30 days) was 40% and the responders at 750 mg/kg (mice [1]; Mus musculus, light or radiation study, ip, 720 h, Table II, 750 mg/kg i.p., 15' before irradiation, 900 Rad, read-out: % survival at 30 days) was 60%. For the same compound, the responders at 750 mg/kg (mice [1]; Mus musculus, light or radiation study, ip, 720 h, Table II, 750 mg/kg i.p., 2 hours before irradiation, 900 Rad, read-out: % survival at 30 days) was 70% and the “radioprotective activity (in words)” value (mice [1]) was “show radioprotective activity”.
For `CC(=O)SCCNC(=O)CNC(=O)CN.O=C(O)C(F)(F)F` [Example 28, TRIFLUOROACETATE], the responders at 1000 mg/kg (mice [1]; [5]) was 100%, the responders at 1000 mg/kg (mice [1]; [9]) was 100% and the responders at 1000 mg/kg (mice [1]; [10]) was 0%. For the same compound, the responders at 1500 mg/kg (mice [1]; Mus musculus, light or radiation study, ip, 720 h, Table II, 1,500 mg/kg i.p., 15' before irradiation, Rad not printed (1,100 in text), read-out: % survival at 30 days) was 100%.
In the case of `CC(=O)SCCNC(=O)CNC(=O)CN.O=C(O)C(F)(F)F` [Example 28], the LD50 [3] is reported as > 2000 mg/kg, the LD50 ([3]; Table I) is reported as > 2000 mg/kg and the LD50 ([3]; Table II) is reported as > 2000 mg/kg. For the same compound, the “survival at 30 days” value (mice [1]; mice, 1,500 mg/kg (i.p.) 15 minutes before irradiation of 1,100 Rad) was 100%.
With `CC(=O)OC(CNC(=O)CN)CSSCC(CNC(=O)CN)OC(C)=O` (stereo not drawn) [Example 31, 1,2-DI(3-GLYCYLAMINO-2-ACETOXYPROPYL)[…](TRIFLUOROACETATE)] the LD50 ([3]; Table I) was 750 mg/kg, the LD50 ([3]; Table II) was 750 mg/kg and the “% survival at 30 days” value (mice [1]; ip, 93.7 mg/kg, 720 h) was 0%. The “% survival at the 30th day” value (mice [1]; ip, 375 mg/kg) was 60%.
For `CC(=O)NCCSC(=O)CN.O=C(O)C(F)(F)F` [Example 34, TRIFLUOROACETATE], the responders at 500 mg/kg (mice [1]; [5]) was 70%, the responders at 125 mg/kg (mice [1]; Mus musculus, light or radiation study, ip, 720 h, Table II, 125 mg/kg i.p., 15' before irradiation, 950 Rad, read-out: % survival at 30 days) was 20% and the responders at 500 mg/kg (mice [1]; [11]) was 70%.
In the case of `NCC(=O)NCC(=O)NCCSSCCNC(=O)CNC(=O)CN.O=C(O)C(F)(F)F.O=C(O)C(F)(F)F` [Example 36, N,N'-DI(GLYCYLGLYCYL)CYSTAMINE DI(TRIFLUOROACETATE)], the LD50 ([3]; Table I) is reported as 2000 mg/kg, the LD50 ([3]; Table II) is reported as 2000 mg/kg and the responders at 1000 mg/kg (mice [1]; [5]) is reported as 30%. The responders at 250 mg/kg (mice [1]; Mus musculus, light or radiation study, ip, 720 h, Table II, 250 mg/kg i.p., 15' before irradiation, 950 Rad, read-out: % survival at 30 days) was 10% and the responders at 1000 mg/kg (mice [1]; [11]) was 30%.
